Here are results for 18 molecules from US7585859B2, “PDE4B inhibitors and uses therefor” (Plexxikon, Inc., priority 2004, dated 2009).

What all share (assay type): biochemical
For assay [1], the target named is T1, PDE4B: The catalytic domain of human PDE4B from S152-S528 (Homo sapiens, UniProt Q07343).
T1 construct: His6 (N); thrombin cleavage site (N); made in house; host or cells: E. coli
In words: PDE4 IC50 determination by Scintillation Proximity Assay, PDE4B. The note with it: Table 1B, Formula I compounds; read-out: IC50 PDE4B. In a few lines: (§1)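 Radiometric SPA: PDE4B (80 ng/ml) or PDE4D (4 ng/ml) hydrolysed [^3H]cAMP over 30 min at 30°, and the bead-bound [^3H]AMP was scintillation-counted.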

The target in assay [2] is T2, full-length human PDE4B2 isozyme (Homo sapiens, UniProt Q07343).
T2 construct: The full-length human PDE4B2 isozyme; His6 (N); TEV cleavage site (N); made in house; host or cells: baculovirus infected insect cells (unpurified lysate)
In words: PDE4 IC50 determination by Scintillation Proximity Assay, PDE4B2. The note with it: Table 1B, Formula I compounds; read-out: IC50 PDE4B2. In a few lines:
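Unpurified His6-TEV-tagged full-length human PDE4B2 from baculovirus-infected insect cell lysate (2.5 μl of 50% glycerol stock/ml) hydrolysed [3H]cAMP in 50 mM Tris pH 7.5, 8.3 mM MgCl, 1.7 mM EGTA, 0.01% BSA for 30 min at 30°. Stopped with SPA beads in 18 mM ZnSO4; [3H]AMP scintillation counted, IC50 by non-linear regression.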

Assay [3] deals with T3, full-length human PDE4D5 isozyme (Homo sapiens, UniProt Q08499).
T3 construct: The full-length human PDE4D5 isozyme; His6 (N); TEV cleavage site (N); made in house; host or cells: baculovirus infected insect cells (unpurified lysate)
Description: PDE4 IC50 determination by Scintillation Proximity Assay, PDE4D5. The note with it: Table 1B, Formula I compounds; read-out: IC50 PDE4D5. As to the method: IC50s were determined by Scintillation Proximity Assay (SPA). The principle of the assay is based on the fact that cAMP, the PDE4 substrate, binds weakly to Yittrium Silicate SPA beads, whereas AMP, the product of PDE4 hydrolysis binds strongly. Thus, the extent of PDE4 hydrolysis of a sample of [^3H]cAMP can be measured because only the
[^3H]AMP produced by PDE4 hydrolysis will bind to the SPA beads and produce a scintillation signal.
PDE4 enzymes used for IC50 assays were:
PDE4D5: The full-length human PDE4D5 isozyme with an N-terminal His6 tag (SEQ ID NO: 18) and TEV cleavage site expressed in baculovirus infected insect cells. The enzyme was not purified from the cell lysates, so enzyme concentrations were not determined. Enzyme was stored in 50% glycerol at −20°.
Compounds tested (see Tables 3B, 4B and 5A for compounds and results) were 3-fold serially diluted 11 times in DMSO from a starting concentration of 4 mM or 40 μM, depending on compound potency. 1 μl of each dilution was transferred into duplicate wells of a white polystyrene 384-well assay plate (Coming #3705). In addition to the compound dilutions, each assay plate contained control wells with 1 μl of DMSO (to define 0% enzyme inhibition) or 1 μl of 200 μM roflumilast (to define 100% enzyme inhibition). Using a Beckman FX robot, 10 μl of [^3H] cAMP (Amersham TRK559) at 2 mCi/ml in assay buffer (50 mM Tris, pH 7.5; 8.3 mM MgCl; 1.7 mM EGTA; 0.01% BSA) was transferred to each assay well. Next, 10 μl of PDE4 enzyme in assay buffer was added and the plates were shaken for 30 s. at 1000 rpm to start the cAMP hydrolysis reaction. The concentrations of enzyme used were: PDE4B, 80 ng/ml; PDE4D, 4 ng/ml; PDE4B2, 2.5 μl of 50% glycerol stock/ml; PDE4D5 0.083 μl of 50% glycerol stock/ml. Assay plates were covered and incubated for 30 min. at 30°. Reactions were stopped by robotic addition of 10 μl of 5 mg/ml SPA beads (Amersham RPNQ0013) in 18 mM ZnSO4. The assay plates were covered with clear plastic film, centrifuged for 1 min. at 1000 RPM to settle the SPA beads, and counted using a Wallac TriLux scintillation counter. IC50's were calculated from the raw assay data by non-linear regression curve fitting using the Assay Explorer software package from MDL.

The next assay deals with T4, PDE4D (Homo sapiens, UniProt Q08499).
T4 construct: PDE4D: The catalytic domain of human PDE4B from S3 16-V692; His6 (N); thrombin cleavage site (N); made in house; host or cells: E. coli
Description: PDE4 IC50 determination by Scintillation Proximity Assay, PDE4D. To be noted: Table 1B, Formula I compounds; read-out: IC50 PDE4D. In short, it runs like this:
as §1

Structures are written as SMILES. pIC50: −log10 of the molar value.

T2 sequence (Q07343 1-564 isoform Q07343-2): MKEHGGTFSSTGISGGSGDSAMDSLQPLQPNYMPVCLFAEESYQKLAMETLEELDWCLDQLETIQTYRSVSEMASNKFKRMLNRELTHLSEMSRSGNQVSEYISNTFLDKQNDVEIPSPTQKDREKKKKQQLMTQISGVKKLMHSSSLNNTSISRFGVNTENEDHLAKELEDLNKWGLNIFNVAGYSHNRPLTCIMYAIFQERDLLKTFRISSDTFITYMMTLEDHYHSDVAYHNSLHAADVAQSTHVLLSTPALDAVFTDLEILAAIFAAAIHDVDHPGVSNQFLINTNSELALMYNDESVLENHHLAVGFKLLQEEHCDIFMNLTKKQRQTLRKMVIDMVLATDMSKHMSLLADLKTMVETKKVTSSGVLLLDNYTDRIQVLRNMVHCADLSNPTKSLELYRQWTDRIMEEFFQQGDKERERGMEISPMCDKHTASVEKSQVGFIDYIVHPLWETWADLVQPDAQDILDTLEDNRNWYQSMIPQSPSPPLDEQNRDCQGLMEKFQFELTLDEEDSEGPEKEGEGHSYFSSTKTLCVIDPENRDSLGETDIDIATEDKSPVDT
T1 sequence (Q07343 with tags, fused parts or gaps): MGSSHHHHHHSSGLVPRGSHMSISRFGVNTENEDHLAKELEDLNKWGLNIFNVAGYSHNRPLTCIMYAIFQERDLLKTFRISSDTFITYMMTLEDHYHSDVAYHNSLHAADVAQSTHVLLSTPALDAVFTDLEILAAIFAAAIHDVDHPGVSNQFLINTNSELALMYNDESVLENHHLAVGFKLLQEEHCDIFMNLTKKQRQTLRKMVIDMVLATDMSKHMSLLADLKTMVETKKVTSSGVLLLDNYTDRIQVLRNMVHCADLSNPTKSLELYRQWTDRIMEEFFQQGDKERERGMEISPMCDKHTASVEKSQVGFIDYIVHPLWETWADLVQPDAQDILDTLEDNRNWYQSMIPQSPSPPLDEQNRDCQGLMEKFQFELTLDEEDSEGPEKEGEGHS
T3 sequence (Q08499 1-745 isoform Q08499-6): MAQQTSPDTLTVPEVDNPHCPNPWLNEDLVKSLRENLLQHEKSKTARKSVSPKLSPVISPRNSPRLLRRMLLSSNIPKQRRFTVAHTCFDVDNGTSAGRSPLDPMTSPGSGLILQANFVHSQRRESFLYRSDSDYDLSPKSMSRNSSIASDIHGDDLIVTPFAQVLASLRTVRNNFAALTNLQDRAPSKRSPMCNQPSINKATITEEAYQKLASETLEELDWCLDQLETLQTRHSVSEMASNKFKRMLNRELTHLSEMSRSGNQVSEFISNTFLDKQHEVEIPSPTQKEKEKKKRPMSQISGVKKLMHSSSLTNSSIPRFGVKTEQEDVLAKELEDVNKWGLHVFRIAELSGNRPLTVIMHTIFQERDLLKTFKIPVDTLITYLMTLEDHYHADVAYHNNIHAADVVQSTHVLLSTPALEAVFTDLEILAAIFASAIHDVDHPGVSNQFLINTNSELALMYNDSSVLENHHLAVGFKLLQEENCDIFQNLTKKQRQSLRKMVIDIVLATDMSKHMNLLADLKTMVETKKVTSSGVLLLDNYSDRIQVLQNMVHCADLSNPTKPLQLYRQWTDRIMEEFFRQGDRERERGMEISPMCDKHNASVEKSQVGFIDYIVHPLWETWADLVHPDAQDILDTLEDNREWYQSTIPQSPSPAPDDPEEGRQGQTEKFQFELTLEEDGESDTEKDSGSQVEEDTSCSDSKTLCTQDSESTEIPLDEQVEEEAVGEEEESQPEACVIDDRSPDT
T4 sequence (Q08499 380-756): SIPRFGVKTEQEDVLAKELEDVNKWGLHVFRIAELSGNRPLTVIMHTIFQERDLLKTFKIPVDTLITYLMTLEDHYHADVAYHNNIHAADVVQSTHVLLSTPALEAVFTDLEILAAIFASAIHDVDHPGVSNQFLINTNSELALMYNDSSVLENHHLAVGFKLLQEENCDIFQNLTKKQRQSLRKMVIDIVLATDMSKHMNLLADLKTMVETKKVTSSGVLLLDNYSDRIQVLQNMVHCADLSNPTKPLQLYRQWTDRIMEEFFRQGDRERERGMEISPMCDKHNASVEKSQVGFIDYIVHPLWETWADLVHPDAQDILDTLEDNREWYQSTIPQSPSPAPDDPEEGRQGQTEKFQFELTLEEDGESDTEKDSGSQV

As to `Cc1ccc(C(=O)c2sc(NC(=O)c3ccccc3C)c(C#N)c2N)c(C)c1` [Compound 1-86, N-[4-Amino-3-cyano-5-(2,4-dimethyl-benzoyl)-thiophen-2-yl]-2-methyl-benzamide], the pIC50 in assay [1] was more than 5.00; in assay [2], less than 5.00; in assay [3], less than 5.00; on PDE4D it was more than 5.00.
Regarding `Cc1ccc(C(=O)c2sc(NC3CCCC3)c(C#N)c2N)c(C)c1` [Compound 1-90, 4-Amino-2-cyclopentylamino-5-(2,4-dimethyl-benzoyl)-thiophene-3-carbonitrile], the pIC50 (in assay [1]; in assay [2]; in assay [3]; on PDE4D) was more than 5.00 throughout.
On to `CCc1ccccc1Nc1sc(C(=O)c2cc(OC)ccc2OC)c(N)c1C#N` [Compound 1-99, 4-Amino-5-(2,5-dimethoxy-benzoyl)-2-(2-ethyl-phenylamino)-thiophene-3-carbonitrile], for which the pIC50 (in assay [1]; in assay [2]; in assay [3]; on PDE4D) was more than 5.00 each time.
Take `Cc1c(C(=O)c2sc(Nc3cccc(C#N)c3)c(C#N)c2N)cnn1-c1ccccc1` [Compound 1-125, 4-Amino-2-(3-cyano-phenylamino)-5-(5-methyl-1-phenyl-1H-pyrazole-4-carbonyl)-thiophene-3-carbonitrile]: the pIC50 (in assay [1]; in assay [2]; in assay [3]; at PDE4D) was more than 5.00 each time.
Take `COc1ccc(Nc2sc(C(=O)c3c(-c4ccccc4)noc3C)c(N)c2C#N)cc1` [Compound 1-129, 4-Amino-2-(4-methoxy-phenylamino)-5-(5-methyl-3-phenyl-isoxazole-4-carbonyl)-thiophene-3-carbonitrile]: the pIC50 (in assay [1]; in assay [2]; in assay [3]; on PDE4D) was more than 5.00 each time.
`COC(=O)c1ccccc1Nc1sc(C(=O)c2c(-c3ccccc3)noc2C)c(N)c1C#N` [Compound 1-130, 2-[4-Amino-3-cyano-5-(5-methyl-3-phenyl-isoxazole-4-carbonyl)-thiophen-2-ylamino]-benzoic acid methyl ester]: the negative logarithm of the IC50 (pIC50) (in assay [1]; in assay [2]; in assay [3]; on PDE4D) was more than 5.00 in each case.
For `CCOC(=O)c1cc(C(=O)c2sc(NC3CCCC3)c(C#N)c2N)on1` [Compound 1-139, 5-(3-Amino-4-cyano-5-cyclopentylamino-thiophene-2-carbonyl)-isoxazole-3-carboxylic acid ethyl ester], the negative logarithm of the IC50 (pIC50) (in assay [1]; in assay [2]; in assay [3]; at PDE4D) was more than 5.00 each time.
With `COc1ccc(C(=O)c2sc(Nc3cccc(C#N)c3)c(C#N)c2N)c(OC)c1` [Compound 1-155, 4-Amino-2-(3-cyano-phenylamino)-5-(2,4-dimethoxy-benzoyl)-thiophene-3-carbonitrile], the pIC50 (in assay [1]; in assay [2]; in assay [3]; on PDE4D) was more than 5.00 each time.
On to `N#Cc1c(NC2CCCC2)sc(C(=O)c2cc(-c3ccc(Cl)c(Cl)c3)no2)c1N` [Compound 1-172, 4-Amino-2-cyclopentylamino-5-[3-(3-4-dichloro-phenyl)-isoxazole-5-carbonyl]-thiophene-3-carbonitrile], for which the pIC50 in assay [1] is more than 5.00; in assay [2] it was more than 5.00; in assay [3], less than 5.00; on PDE4D, less than 5.00.
For `CSc1cccc(Nc2sc(C(=O)c3ccccc3Cl)c(N)c2C#N)c1` [Compound 1-180, 4-Amino-5-(2-chloro-benzoyl)-2-(3-methylsulfanyl-phenylamino)-thiophene-3-carbonitrile], the pIC50 (in assay [1]; in assay [2]; in assay [3]; on PDE4D) was more than 5.00 each time.
In the case of `N#Cc1c(Nc2ccc(Oc3ccccc3)cc2)sc(C(=O)c2cc(-c3ccccc3)no2)c1N` [Compound 1-187, 4-Amino-2-(4-phenoxy-phenylamino)-5-(3-phenyl-isoxazole-5-carbonyl)-thiophene-3-carbonitrile], the pIC50 (in assay [1]; in assay [2]; in assay [3]; at PDE4D) was less than 5.00 each time.
As for `CCNC(=O)c1cc(C(=O)c2sc(NC3CCCC3)c(C#N)c2N)on1` [Compound 1-198, 5-(3-Amino-4-cyano-5-cyclopentylamino-thiophene-2-carbonyl)-isoxazole-3-carboxylic acid ethylamide], the pIC50 was more than 5.00 in assay [1], less than 5.00 in assay [2], less than 5.00 in assay [3] and more than 5.00 at PDE4D.
Turning to `CCOC(=O)c1c(NC2CCCC2)sc(C(=O)c2cc(-c3ccccc3)no2)c1N` [Compound 1-200, 4-Amino-2-cyclopentylamino-5-(3-phenyl-isoxazole-5-carbonyl)-thiophene-3-carboxylic acid ethyl ester], the pIC50 is less than 5.00 in assay [1], less than 5.00 in assay [2], less than 5.00 in assay [3] and more than 5.00 at PDE4D.
Consider `N#Cc1c(NC2CCCCC2)sc(C(=O)c2cc(-c3ccccc3)no2)c1N` [Compound 1-204, 4-Amino-2-cyclohexylamino-5-(3-phenyl-isoxazole-5-carbonyl)-thiophene-3-carbonitrile], for which the pIC50 (in assay [1]; in assay [2]; in assay [3]; at PDE4D) was less than 5.00 throughout.
Take `N#Cc1c(NCC2CC2)sc(C(=O)c2cc(-c3ccccc3)no2)c1N` [Compound 1-206, 4-Amino-2-(cyclopropylmethyl-amino)-5-(3-phenyl-isoxazole-5-carbonyl)-thiophene-3-carbonitrile]: the pIC50 (in assay [1]; in assay [2]; in assay [3]; at PDE4D) was less than 5.00 in each case.
With `N#Cc1c(Nc2ccco2)sc(C(=O)c2cc(-c3ccccc3)no2)c1N` [Compound 1-208, 4-Amino-2-(furan-2-ylamino)-5-(3-phenyl-isoxazole-5-carbonyl)-thiophene-3-carbonitrile], the pIC50 in assay [1] is less than 5.00; in assay [2] it was more than 5.00; in assay [3], less than 5.00; at PDE4D, less than 5.00.
Take `N#Cc1c(NC2CCCO2)sc(C(=O)c2cc(-c3ccccc3)no2)c1N` (stereo not drawn) [Compound 1-210, 4-Amino-5-(3-phenyl-isoxazole-5-carbonyl)-2-(tetrahydro-furan-2-ylamino)-thiophene-3-carbonitrile]: the pIC50 (in assay [1]; in assay [2]; in assay [3]; on PDE4D) was more than 5.00 each time.
In the case of `N#Cc1c(NC2CCCC2)sc(C(=O)c2cc(-c3c(Cl)cccc3Cl)no2)c1N` [Compound 1-211, 4-Amino-2-cyclopentylamino-5-[3-(2,6-dichloro-phenyl)-isoxazole-5-carbonyl]-thiophene-3-carbonitrile], the pIC50 (in assay [1]; in assay [2]; in assay [3]; at PDE4D) was more than 5.00 each time.
